The text below walks through data of PMC10447463, “Data-mining unveils structure–property–activity correlation of viral infectivity enhancing self-assembling peptides” (Nature Communications, 2023).

Like-named read-outs stand apart in the source and are kept apart here.

Data set [1] relates to HIV-1 infection of TZM-bl cells. Briefly: HIV-1 infectivity enhancement assay, β-galactosidase luminescence. The note with it: for Rel-to EFC / n-fold to virus: Fig S8 panels B, D; for Rel-to EFC: infectivity enhancement relative to EF-C; for Log10 Inf. rel. to EF-C: log10 of HIV-1 infection of TZM-bl cells relative to EF-C, Fig S15 source data, asymmetric std dev errors. The data set is classed as cell-based.

Data set [2] in a line: Zeta-potential measurement. The format is physicochemical. The note with it: for Zeta-pot. / mV: zeta potential of peptide, Fig S15 source data. The gist of the method: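 In this measurement, peptides aggregated for a day at RT in phosphate-buffered saline (pH 7.4, 1 mg/mL) are diluted into 1 mM potassium chloride, and the electrophoretic mobility is translated into zeta potential by Smoluchowski's relation.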

Data set [3] is described as follows: β-sheet content by ATR-FT-IR. The data set is classed as physicochemical. An outline of the steps:
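ATR FT-IR, diamond crystal, 64 scans, 2 cm^-1, on freeze-dried 1 mg/mL PNF; β-sheet per prior calculation. Fluorescamine CR: 3 kDa filter, DMSO redissolution, 20 min RT, ex 365/em 470 nm; values as n-fold enhancement over DMSO (set to 1).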

Data set [4] is classed as physicochemical. The note with it: STD prep.
Setting [5] is: Feb2021, Log10 of infectivity relative to EF-C.
The mark [6] stands for this setting: Feb2021, figures match the 1.3 µM column.
[7] abbreviates: Feb2021, infectivity relative to virus only.
Where [8] appears, read: Feb2021, n-fold enhancement relative to EF-C.
[9] abbreviates: Feb2021, n-fold infectivity relative to EF-C.
The mark [10] stands for this setting: Feb2021 run, infectivity n-fold relative to virus alone.
Setting [11] is: Feb2021 run, log10 of infectivity relative to EF-C.
Setting [12] is: Feb2021 run, n-fold infectivity relative to EF-C.
Where [13] appears, read: infectivity n-fold relative to virus alone.
[14] abbreviates: infectivity class (low / medium / high) of the peptide in the sequence-pattern analysis, Fig. S22-A4, class limits not given.
[15] abbreviates: infectivity enhancement relative to EF-C (=1), Feb2021 run.
Setting [16] is: infectivity n-fold relative to virus only, Feb2021 run.
The mark [17] stands for this setting: log10 of infectivity relative to EF-C, Feb2021 run.
Where [18] appears, read: infectivity class (low / medium / high) of each library peptide, main list in c1-c6, same classes repeated in sub-lists of sequences containing the hydrophobicity/charge patterns P+,H0,P+,H0,P0,H0,P0, P+,H0,P0,H0,P0,H0,P0, P+,H0,P0,H0.

Consider CKIKQII [MG4a], for which the “Log10 of Rel to EFC (Feb2021)” value in data set [1] (setting [5]), in data set [1] (setting [11]) and in data set [1] (setting [17]) was -1.379 each time. Also, the “Absolute Infectivity / RLU /s (Feb2021)” value in data set [1] (setting [6]) turned out to be 796.7 RLU /s. For the same substance, the “n-fold to virus (Feb2021)” value in data set [1] (setting [7]), in data set [1] (setting [10]) and in data set [1] (setting [16]) was 1.757 in each case. The “Rel-to EFC (Feb-2021)” value in data set [1] (setting [8]), in data set [1] (setting [9]), in data set [1] (setting [12]) and in data set [1] (setting [15]) was 0.04182 in each case. In addition, the “Rel-to EFC” value in data set [1] worked out at 0.04182. Moreover, the n-fold to virus in data set [1] (setting [13]) was 1.757. In data set [1] (setting [14]), the infectivity result is on record as “low”. Also, the “Log10 Inf. rel. to EF-C” value in data set [1] is -1.379. Further, the “Zeta Pot. / mV” value in data set [2] is -3.83 mV; in data set [2] (mean, Std Zeta in next column), -3.83 mV; in data set [2] (mean, Std in separate column), -3.83 mV. Further, the “Zeta category ( +1 = if > 4 mV;-1 = if < -4 mV; 0 = -4mV to 4 mV)” value (“Zeta category” below) in data set [2] and in data set [2] (category from zeta potential) was 0 (0 = -4mV to 4 mV) throughout. Besides, the “Zeta-pot. / mV” value in data set [2] is reported as -3.83 mV. Besides, the “FTIR ß-sheet content/ %” value in data set [3] and in data set [3] (ATR-FT-IR) was 25% throughout. In addition, the “TEM: 1= fibrils, 0= aggregates (micelle), 0.5 = aggregates and fibrils, -1 = nothing obersved, STD prep” value (“TEM: 1= fibrils, 0= aggregates (micelle)” below) in data set [4] is given as 0.5.
For CKIKQIINM [BL1], the “Log10 of Rel to EFC (Feb2021)” value in data set [1] (setting [5]) and in data set [1] (setting [11]) was -0.3035 each time. Further, the “Absolute Infectivity / RLU /s (Feb2021)” value in data set [1] (setting [6]) is 11280 RLU /s. The “n-fold to virus (Feb2021)” value in data set [1] (setting [7]) and in data set [1] (setting [10]) was 20.89 each time. For the same substance, the “Rel-to EFC (Feb-2021)” value in data set [1] (setting [8]), in data set [1] (setting [9]) and in data set [1] (setting [12]) was 0.4971 each time. Further, the infectivity entry in data set [1] (setting [18]) is “medium”. The “Log10 Inf. rel. to EF-C” value in data set [1] was -0.3035. The “Zeta Pot. / mV” value was 12.9 mV in data set [2]; 12.9 mV in data set [2] (mean, Std Zeta in next column); 12.9 mV in data set [2] (mean, Std in separate column). Moreover, the “Zeta category” value in data set [2] and in data set [2] (category from zeta potential) was 1 (+1 = if > 4 mV) each time. The “Zeta-pot. / mV” value in data set [2] is recorded as 12.9 mV. Besides, the “FTIR ß-sheet content/ %” value in data set [3] and in data set [3] (ATR-FT-IR) was 46% throughout. The “TEM: 1= fibrils, 0= aggregates (micelle)” value in data set [4] is 1.
Take CKIKQIINMWQ [MG5a / CK17]: the “Log10 of Rel to EFC (Feb2021)” value in data set [1] (setting [5]), in data set [1] (setting [11]) and in data set [1] (setting [17]) was 0.09484 throughout. Moreover, the “Absolute Infectivity / RLU /s (Feb2021)” value in data set [1] (setting [6]) came to 23696.66667 RLU /s. Also, the “n-fold to virus (Feb2021)” value in data set [1] (setting [7]), in data set [1] (setting [10]) and in data set [1] (setting [16]) was 52.27 each time. Also, the “Rel-to EFC (Feb-2021)” value in data set [1] (setting [8]), in data set [1] (setting [9]), in data set [1] (setting [12]) and in data set [1] (setting [15]) was 1.244 throughout. The “Rel-to EFC” value in data set [1] amounted to 1.244. Further, the n-fold to virus in data set [1] (setting [13]) is 52.27. Besides, the infectivity result in data set [1] (setting [14]) is “high”. Besides, the “Log10 Inf. rel. to EF-C” value in data set [1] amounted to 0.09484. Further, the “Zeta Pot. / mV” value came to 13.4 mV in data set [2]; 13.4 mV in data set [2] (mean, Std Zeta in next column); 13.4 mV in data set [2] (mean, Std in separate column). Further, the “Zeta category” value in data set [2] and in data set [2] (category from zeta potential) was 1 (+1 = if > 4 mV) in each case. Besides, the “Zeta-pot. / mV” value in data set [2] was 13.4 mV. Further, the “FTIR ß-sheet content/ %” value in data set [3] and in data set [3] (ATR-FT-IR) was 51% throughout. For the same substance, the “TEM: 1= fibrils, 0= aggregates (micelle)” value in data set [4] is reported as 1.
As for CRFRFQF [CN10], the “n-fold to virus (Feb2021)” value in data set [1] (Feb2021, 1.3 µM value relative to virus only (0 µM)) was 14.45. Also, in data set [1] (Feb2021, log10 of infectivity relative to EF-C), the “Log10 of Rel to EFC (Feb2021)” value is given as -0.4635. Besides, the “Rel-to EFC (Feb-2021)” value in data set [1] (setting [9]) turned out to be 0.3439. The “Absolute Infectivity / RLU /s (Feb2021)” value in data set [1] (Feb2021, unrounded values of the 1.3 µM column) was 7508 RLU /s. Further, the infectivity result in data set [1] (setting [18]) is reported as “medium”. The “Log10 Inf. rel. to EF-C” value in data set [1] is listed as -0.4635. In addition, in data set [2], the “Zeta category” value was 0 (0 = -4mV to 4 mV) and the “Zeta-pot. / mV” value is -2.097 mV. The “Zeta Pot. / mV” value in data set [2] (mean, Std Zeta in next column) was -2.097 mV. Further, the “FTIR ß-sheet content/ %” value in data set [3] (ATR-FT-IR) is given as 39.77%. In data set [4], the “TEM: 1= fibrils, 0= aggregates (micelle)” value is 1.
